Measured values taken from the supplement of paper PMC10307832.

Experiments:
Test in all cases: relative viability (nuclei count vs DMSO), 5 days (fraction); higher = more cells survive
BAM7 + Palbociclib = compound: CCOC1=CC=CC=C1N=NC2=C(NN(C2=O)C3=NC(=CS3)C4=CC=CC=C4)C [BAM7] + CC(=O)c1c(C)c2cnc(Nc3ccc(N4CCNCC4)cn3)nc2n(C2CCCC2)c1=O [Palbociclib] (partner 0.5 µM)
In short: (§1)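 Lung cancer cell lines, seeded in 1536-well plates, were treated the following day by pin tool with a single drug or with five library-drug doses (not always all listed) in √10 steps on top of a fixed anchor-drug dose. Cells were fixed and nuclei stained in one step after 5 days, and nuclei were counted. Relative viability is the nuclei count for treated wells divided by that for vehicle wells, reported as medians of duplicate plates.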

[1] = compound: CCn1c(-c2nonc2N)nc2c(C#CC(C)(C)O)ncc(OC[C@H]3CCCNC3)c21 + CC(=O)c1c(C)c2cnc(Nc3ccc(N4CCNCC4)cn3)nc2n(C2CCCC2)c1=O [Palbociclib] (partner 0.5 µM)
In short: as §1

BAM7 + AZD7762 = compound: CCOC1=CC=CC=C1N=NC2=C(NN(C2=O)C3=NC(=CS3)C4=CC=CC=C4)C [BAM7] + NC(=O)Nc1cc(-c2cccc(F)c2)sc1C(=O)N[C@H]1CCCNC1 [AZD7762] (partner 0.2 µM)
In short: as §1

BAM7 + Luminespib = compound: CCOC1=CC=CC=C1N=NC2=C(NN(C2=O)C3=NC(=CS3)C4=CC=CC=C4)C [BAM7] + CCNC(=O)c1noc(-c2cc(C(C)C)c(O)cc2O)c1-c1ccc(CN2CCOCC2)cc1 [Luminespib] (partner 0.01 µM)
In short: as §1

| Cell Line | relative viability (BAM7 + Palbociclib; first compound 0.5 µM) | relative viability (BAM7 + Palbociclib; first compound 5 µM) | relative viability (BAM7 + Palbociclib; first compound 15.81 µM) | relative viability (BAM7 + Palbociclib; first compound 50 µM) | relative viability ([1]; first compound 0.01 µM) | relative viability ([1]; first compound 0.03162 µM) | relative viability ([1]; first compound 0.1 µM) | relative viability ([1]; first compound 0.3162 µM) | relative viability ([1]; first compound 1 µM) | relative viability (BAM7 + AZD7762; first compound 0.5 µM) | relative viability (BAM7 + AZD7762; first compound 5 µM) | relative viability (BAM7 + AZD7762; first compound 15.81 µM) | relative viability (BAM7 + AZD7762; first compound 50 µM) | relative viability (BAM7 + Luminespib; first compound 0.5 µM) | relative viability (BAM7 + Luminespib; first compound 5 µM) | relative viability (BAM7 + Luminespib; first compound 15.81 µM) | relative viability (BAM7 + Luminespib; first compound 50 µM) |
| --- | --- | --- | --- | --- | --- | --- | --- | --- | --- | --- | --- | --- | --- | --- | --- | --- | --- |
| NCI-H838 | 0.24 | 0.243 | 0.222 | 0.218 | 0.19 | 0.221 | 0.199 | 0.172 | 0.227 | 0.919 | 0.968 | 0.862 | 1 | 0.359 | 0.292 | 0.346 | 0.328 |
| NCI-H1648 | 0.303 | 0.257 | 0.264 | 0.375 | 0.266 | 0.272 | 0.235 | 0.262 | 0.317 | 0.489 | 0.775 | 0.633 | 0.921 |  |  |  |  |
| A-427 | 0.507 | 0.49 | 0.498 | 0.532 | 0.426 | 0.508 | 0.533 | 0.515 | 0.559 | 0.743 | 0.848 | 0.802 | 0.737 | 0.949 | 0.715 | 0.886 | 1.03 |
| NCI-H1792 | 0.642 | 0.687 | 0.624 | 0.66 | 0.607 |  | 0.601 | 0.586 | 0.701 | 0.681 | 0.65 | 0.605 | 0.633 | 0.501 | 0.46 | 0.421 | 0.509 |
| LCLC-97TM1 | 0.272 | 0.185 |  | 0.186 | 0.19 | 0.245 | 0.234 | 0.205 | 0.2 | 0.222 | 0.172 | 0.29 | 0.252 | 0.848 | 0.803 | 0.825 | 1.01 |
| NCI-H1703 |  |  |  |  |  |  |  |  |  | 0.14 | 0.115 | 0.122 | 0.132 |  |  |  |  |
| LCLC-103H | 0.507 | 0.493 | 0.484 | 0.529 | 0.511 | 0.475 | 0.503 | 0.48 | 0.352 | 0.825 | 0.88 | 0.725 | 0.781 | 0.837 | 0.919 | 0.946 | 0.979 |
| PC-3 [JPC-3] | 0.49 | 0.533 | 0.462 | 0.531 | 0.529 |  | 0.556 | 0.557 | 0.531 | 0.889 | 0.74 | 0.64 | 0.686 | 0.683 | 0.771 | 0.612 | 0.636 |
| BEN | 0.491 | 0.493 | 0.546 | 0.492 | 0.481 | 0.475 | 0.432 | 0.463 | 0.474 | 0.689 | 0.802 | 0.939 | 0.74 | 0.444 | 0.494 | 0.382 | 0.272 |
| NCI-H1666 | 0.628 | 0.627 | 0.669 | 0.677 | 0.615 | 0.647 | 0.645 | 0.626 | 0.636 | 0.847 | 0.826 | 0.902 | 0.762 | 1 | 0.953 | 1.03 | 1.03 |
| LC-2-ad | 0.487 | 0.478 | 0.545 | 0.485 | 0.547 | 0.455 | 0.546 | 0.502 | 0.462 | 0.916 | 0.832 | 0.832 | 0.805 | 1.06 | 1.26 | 0.951 | 1.03 |
| SK-LU-1 | 0.399 | 0.405 | 0.43 | 0.453 | 0.405 | 0.455 | 0.323 | 0.414 | 0.39 |  |  |  |  | 0.217 | 0.18 | 0.2 | 0.186 |
| ChaGo-K-1 | 1.02 | 0.965 | 0.819 | 0.902 | 0.915 | 0.918 | 0.939 | 0.893 | 0.84 | 0.831 | 0.891 | 0.843 | 0.808 | 0.509 | 0.573 | 0.58 | 0.613 |
| COR-L 105 | 0.407 | 0.387 | 0.373 | 0.41 | 0.401 | 0.37 | 0.419 | 0.39 | 0.42 |  |  |  |  | 0.668 | 0.892 | 0.706 | 0.734 |
| HCC-366 | 0.406 | 0.343 | 0.303 | 0.389 | 0.378 | 0.419 | 0.396 | 0.359 | 0.344 | 0.173 | 0.19 | 0.191 | 0.186 |  |  |  |  |
| NCI-H596 |  |  |  |  |  |  |  |  |  | 1.27 | 1.12 | 0.92 | 1.05 | 0.848 | 0.956 | 0.951 | 1.18 |
| NCI-H2228 | 0.853 | 0.966 | 1.19 | 1.07 | 0.686 | 0.752 | 0.821 | 0.574 | 0.467 |  |  |  |  | 0.136 | 0.116 | 0.145 | 0.153 |
| SK-MES-1 | 0.332 | 0.35 | 0.308 | 0.272 | 0.306 | 0.298 | 0.299 | 0.318 | 0.308 |  |  |  |  | 0.877 | 0.805 | 0.621 | 0.798 |
| SW 1573 | 0.433 | 0.396 | 0.356 | 0.391 | 0.334 | 0.402 | 0.326 | 0.241 | 0.215 |  |  |  |  | 0.356 | 0.168 | 0.417 | 0.229 |
| NCI-H661 | 0.443 | 0.433 | 0.422 | 0.422 | 0.446 | 0.399 | 0.39 | 0.389 | 0.372 |  |  |  |  | 0.916 | 0.938 | 0.96 | 0.921 |
| NCI-H520 | 0.262 | 0.233 | 0.235 | 0.26 | 0.185 | 0.2 | 0.164 | 0.153 | 0.165 |  |  |  |  | 0.207 | 0.236 | 0.243 | 0.222 |
| NCI-H2023 | 0.375 | 0.316 | 0.293 | 0.327 | 0.357 | 0.379 | 0.331 | 0.205 | 0.262 |  |  |  |  | 0.939 | 0.613 | 0.586 | 0.721 |
| NCI-H2009 | 0.189 | 0.189 | 0.228 | 0.29 | 0.202 | 0.223 | 0.229 | 0.186 | 0.241 |  |  |  |  | 1.05 | 1.06 | 1.04 | 0.979 |
